Measurements published in ChEMBL document CHEMBL2311417, “Synthesis and biological evaluation of N-aryl-7-methoxybenzo[b]furo[3,2-d]pyrimidin-4-amines and their N-arylbenzo[b]thieno[3,2-d]pyrimidin-4-amine analogues as dual inhibitors of CLK1 and DYRK1A kinases” (Eur J Med Chem, 2013).

Experiments:
[1] = biological target: Dual specificity protein kinase CLK1 (Homo sapiens, UniProt P49759)
[2] = biological target: Cyclin-dependent kinase 5/CDK5 activator 1 (Homo sapiens, UniProt Q00535); assay: Inhibition of human recombinant CDK5/p25 after 30 mins by scintillation counting; format: protein-complex assay
Chain of Cyclin-dependent kinase 5/CDK5 activator 1 (Q00535 whole entry): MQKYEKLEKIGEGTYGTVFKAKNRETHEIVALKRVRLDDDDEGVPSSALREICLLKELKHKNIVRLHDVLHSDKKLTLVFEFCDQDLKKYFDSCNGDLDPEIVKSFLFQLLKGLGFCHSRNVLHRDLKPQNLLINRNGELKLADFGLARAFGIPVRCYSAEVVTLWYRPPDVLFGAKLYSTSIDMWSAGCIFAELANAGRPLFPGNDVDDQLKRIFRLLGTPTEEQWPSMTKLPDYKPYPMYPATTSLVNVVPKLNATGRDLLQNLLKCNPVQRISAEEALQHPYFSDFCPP
Chain of Cyclin-dependent kinase 5/CDK5 activator 1 (Q15078 whole entry, further chain): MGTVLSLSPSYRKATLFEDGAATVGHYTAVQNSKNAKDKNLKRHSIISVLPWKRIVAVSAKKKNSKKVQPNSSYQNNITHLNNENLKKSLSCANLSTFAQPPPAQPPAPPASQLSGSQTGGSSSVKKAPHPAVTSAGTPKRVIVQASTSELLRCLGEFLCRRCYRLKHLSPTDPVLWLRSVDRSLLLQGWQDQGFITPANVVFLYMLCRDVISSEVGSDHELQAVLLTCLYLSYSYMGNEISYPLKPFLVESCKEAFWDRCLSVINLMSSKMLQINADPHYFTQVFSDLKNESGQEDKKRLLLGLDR

[3] = biological target: Dual specificity tyrosine-phosphorylation-regulated kinase 1A (Rattus norvegicus, UniProt Q63470); assay: Inhibition of rat recombinant DYRK1A-GST expressed in Escherichia coli using KKISGRLSPIMTEQ as substrate
[4] = biological target: Glycogen synthase kinase-3 (Sus scrofa, UniProt B2LUN4+I6LNT8); assay: Inhibition of porcine brain GSK3alpha/beta using GS-1 as substrate
[5] = Inhibition of porcine brain CK1delta/epsilon using RRKHAAIGpSAYSITA as substrate; design: species or system Sus scrofa

Chain of Dual specificity protein kinase CLK1 (P49759 whole entry): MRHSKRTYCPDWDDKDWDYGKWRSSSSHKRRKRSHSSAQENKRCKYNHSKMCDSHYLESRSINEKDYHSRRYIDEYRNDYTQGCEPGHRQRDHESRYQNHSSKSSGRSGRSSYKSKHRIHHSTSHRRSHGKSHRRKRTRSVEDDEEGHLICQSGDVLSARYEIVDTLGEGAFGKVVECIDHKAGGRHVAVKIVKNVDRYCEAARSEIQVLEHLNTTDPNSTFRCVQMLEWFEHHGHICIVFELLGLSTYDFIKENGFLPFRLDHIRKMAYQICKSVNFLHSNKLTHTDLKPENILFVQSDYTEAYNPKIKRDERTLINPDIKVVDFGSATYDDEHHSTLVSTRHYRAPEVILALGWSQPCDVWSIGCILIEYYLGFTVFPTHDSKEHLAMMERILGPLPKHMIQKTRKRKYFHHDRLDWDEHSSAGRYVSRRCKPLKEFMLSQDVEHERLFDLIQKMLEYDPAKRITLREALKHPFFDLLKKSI

IC50 [1] [µM]	IC50 [2] [µM]	IC50 [3] [µM]	IC50 [4] [µM]	IC50 [5] [µM]	SMILES
> 10	> 10	> 10	> 10	> 10	COc1ccc2c(c1)sc1c(Nc3ccc(C)cc3)ncnc12
> 10	> 10	> 10	> 10	> 10	COc1ccc2c(c1)sc1c(Nc3cc(OC)c(OC)c(OC)c3)ncnc12
	> 10	> 10	> 10	> 10	COc1cc(Nc2ncnc3c2oc2cc(OC)ccc23)cc(OC)c1
> 10	> 10	8.1	> 10	> 10	COc1ccc2c(c1)sc1c(Nc3cc(Cl)cc(Cl)c3)ncnc12
4.2	> 10	3.2	> 10	> 10	COc1ccc2c(c1)oc1c(Nc3ccccc3Cl)ncnc12
> 10	> 10	> 10	> 10	> 10	COc1ccc2c(c1)oc1c(Nc3ccc(OC)c(OC)c3)ncnc12
3.1	> 10	0.61	> 10	> 10	COc1ccc2c(c1)sc1c(Nc3ccccc3Cl)ncnc12
5.1	> 10	3.9	> 10	> 10	COc1cc(Nc2ncnc3c2sc2cc(OC)ccc23)cc(OC)c1
> 10	> 10	> 10	> 10	> 10	COc1ccc2c(c1)oc1c(Nc3ccc(F)cc3F)ncnc12
> 10	> 10	> 10	> 10	> 10	COc1ccc2c(c1)sc1c(Nc3ccccc3)ncnc12
0.79	> 10	0.66	> 10	> 10	COc1ccc2c(c1)sc1c(Nc3ccc(N(C)C)cc3)ncnc12
> 10	> 10	0.71	> 10	> 10	COc1ccc(Nc2ncnc3c2sc2cc(OC)ccc23)c(F)c1
> 10	> 10	7.1	> 10	> 10	COc1ccc(Nc2ncnc3c2sc2cc(OC)ccc23)cc1
> 10	> 10	> 10	> 10	> 10	COc1ccc2c(c1)sc1c(Nc3ccc(Cl)cc3F)ncnc12
6.8	> 10	2.6	> 10	> 10	COc1ccc2c(c1)sc1c(Nc3ccc(C#N)cc3)ncnc12
> 10	> 10	> 10	> 10	> 10	COc1ccc2c(c1)oc1c(Nc3cccc(C(F)(F)F)c3)ncnc12
> 10	> 10	> 10	> 10	> 10	COc1ccc2c(c1)oc1c(Nc3ccc(Cl)cc3)ncnc12
1.5	> 10	0.88	> 10	> 10	COc1ccc(Nc2ncnc3c2oc2cc(OC)ccc23)cc1
2	> 10	2.8	> 10	> 10	COc1ccc2c(c1)oc1c(Nc3ccc4c(c3)OCO4)ncnc12
> 10	> 10	> 10	> 10	> 10	COc1ccc2c(c1)oc1c(Nc3cc(Cl)cc(Cl)c3)ncnc12
> 10	> 10	> 10	> 10	> 10	COc1ccc2c(c1)oc1c(Nc3ccc(N(C)C)cc3)ncnc12
> 10	> 10	> 10	> 10	> 10	COc1ccc2c(c1)oc1c(Nc3cccc(C)c3)ncnc12
2.8	> 10	0.93	> 10	> 10	COc1ccc2c(c1)sc1c(Nc3ccc(OC)c(OC)c3)ncnc12
> 10	> 10	> 10	> 10	> 10	COc1ccc2c(c1)sc1c(Nc3ccc(Br)cc3)ncnc12

IC50 [1] [µM]	IC50 [2] [µM]	IC50 [3] [µM]	IC50 [4] [µM]	IC50 [5] [µM]	SMILES
> 10	> 10	> 10	> 10	> 10	COc1ccc2c(c1)oc1c(Nc3ccc(Br)cc3F)ncnc12
> 10	> 10	> 10	> 10	> 10	COc1ccc2c(c1)oc1c(Nc3cc(OC)c(OC)c(OC)c3)ncnc12
2.3	> 10	0.71	> 10	> 10	COc1ccc2c(c1)sc1c(Nc3ccc(Br)cc3F)ncnc12
> 10	> 10	> 10	> 10	> 10	COc1ccc2c(c1)sc1c(Nc3ccc(F)cc3)ncnc12
6.1	> 10	2	> 10	> 10	COc1ccc2c(c1)sc1c(Nc3ccc(Cl)c(Cl)c3)ncnc12
> 10	> 10	> 10	> 10	> 10	COc1ccc2c(c1)oc1c(Nc3ccc(F)c(Cl)c3)ncnc12
0.41	> 10	1.1	> 10	1.9	COc1ccc2c(c1)oc1c(N)ncnc12
> 10	> 10	> 10	> 10	> 10	COc1ccc2c(c1)oc1c(Nc3ccc(C#N)cc3)ncnc12
> 10	> 10	> 10	> 10	> 10	COc1ccc2c(c1)sc1c(Nc3cccc(C(F)(F)F)c3)ncnc12
> 10	> 10	> 10	> 10	> 10	COc1ccc2c(c1)oc1c(Nc3cccc(Cl)c3)ncnc12
> 10	> 10	> 10	> 10	> 10	COc1ccc(Nc2ncnc3c2oc2cc(OC)ccc23)c(F)c1
> 10	> 10	> 10	> 10	> 10	COc1ccc2c(c1)oc1c(Nc3ccc(Cl)cc3F)ncnc12
> 10	> 10	> 10	> 10	> 10	COc1ccc2c(c1)oc1c(Nc3ccccc3)ncnc12
0.68	> 10	0.5	> 10	> 10	COc1ccc2c(c1)sc1c(Nc3ccc4c(c3)OCCO4)ncnc12
1.6	> 10	0.93	> 10	3.9	COc1ccc2c(c1)sc1c(Nc3ccc(F)cc3F)ncnc12
> 10	> 10	> 10	> 10	> 10	COc1ccc2c(c1)sc1c(N)ncnc12
> 10	> 10	1.6	> 10	> 10	COc1ccc2c(c1)sc1c(Nc3ccc(Cl)cc3Cl)ncnc12
> 10	> 10	6.1	> 10	> 10	COc1ccc2c(c1)sc1c(Nc3cccc(C)c3)ncnc12
> 10	> 10	3.1	> 10	> 10	COc1ccc2c(c1)oc1c(Nc3ccc(Cl)cc3Cl)ncnc12
> 10	> 10	> 10	> 10	> 10	COc1ccc2c(c1)sc1c(Nc3ccc(Cl)cc3)ncnc12
> 10	> 10	> 10	> 10	> 10	COc1ccc2c(c1)oc1c(Nc3ccc(Cl)c(Cl)c3)ncnc12
> 10	> 10	> 10	> 10	> 10	COc1ccc2c(c1)sc1c(Nc3cccc(Cl)c3)ncnc12
> 10	> 10	> 10	> 10	> 10	COc1ccc2c(c1)oc1c(Nc3ccc(Br)cc3)ncnc12
	> 10	> 10	> 10	> 10	COc1ccc2c(c1)oc1c(Nc3ccc(C)cc3)ncnc12

SMILES	IC50 [1] [µM]	IC50 [2] [µM]	IC50 [3] [µM]	IC50 [4] [µM]	IC50 [5] [µM]
COc1ccc2c(c1)[nH]c1c(C)nccc12 [HARMINE]				> 10	1.5
COc1ccc2c(c1)sc1c(Nc3ccc4c(c3)OCO4)ncnc12	> 10	> 10	> 10	> 10	> 10
COc1ccc2c(c1)sc1c(Nc3ccc(F)c(Cl)c3)ncnc12	> 10	> 10	> 10	> 10	> 10
COc1ccc2c(c1)oc1c(Nc3ccc(F)cc3)ncnc12	> 10	> 10	> 10	> 10	> 10
COc1ccc2c(c1)oc1c(Nc3ccc4c(c3)OCCO4)ncnc12	> 10	> 10	> 10	> 10	> 10
